In PubChem BioAssay AID1963849 (Molecular Pharmacology Branch, DTP, NCI, 2024):

Tested on: 299254-011-R-J1-PDC complex spheroid viability
Test: Anticancer human tumor 299254-011-R-J1-PDC patient-derived melanoma cell line growth inhibition [POLQ]
Conditions: for IC50: curve of first compound; for viability, T/C: stronger effect = lower value; active = viability on the fitted dose curve at most 10% of control; inactive = the rest
In short: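 Patient-derived tumour cells were co-cultured with HUVEC and mesenchymal stem cells as multicellular spheroids at 37 °C. They were treated with POLQ inhibitors (novobiocin, ART-558, RP6685) alone or combined with other agents. Top concentrations were at or near clinical Cmax (otherwise 10 microM; SN-38 at 1 microM), decreasing in half-log steps.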

[1] = second compound 0.0316 µM, first compound 0.0316 µM
[2] = second compound 0.0316 µM, first compound 0.1 µM
[3] = second compound 0.0316 µM, first compound 0.316 µM
[4] = second compound 0.0316 µM, first compound 1 µM
[5] = second compound 0.0316 µM, first compound 3.16 µM
[6] = second compound 0.0316 µM, first compound 10 µM
[7] = second compound 0.1 µM, first compound 0.0316 µM
[8] = second compound 0.1 µM, first compound 0.1 µM
[9] = second compound 0.1 µM, first compound 0.316 µM
[10] = second compound 0.1 µM, first compound 1 µM
[11] = second compound 0.1 µM, first compound 3.16 µM
[12] = second compound 0.1 µM, first compound 10 µM
[13] = second compound 0.316 µM, first compound 0.0316 µM
[14] = second compound 0.316 µM, first compound 0.1 µM
[15] = second compound 0.316 µM, first compound 0.316 µM
[16] = second compound 0.316 µM, first compound 1 µM
[17] = second compound 0.316 µM, first compound 3.16 µM
[18] = second compound 0.316 µM, first compound 10 µM
[19] = second compound 1 µM, first compound 0.0316 µM
[20] = second compound 1 µM, first compound 0.1 µM
[21] = second compound 1 µM, first compound 0.316 µM
[22] = second compound 1 µM, first compound 1 µM
[23] = second compound 1 µM, first compound 3.16 µM
[24] = second compound 1 µM, first compound 10 µM
[25] = second compound 3.16 µM, first compound 0.0316 µM
[26] = second compound 3.16 µM, first compound 0.1 µM
[27] = second compound 3.16 µM, first compound 0.316 µM
[28] = second compound 3.16 µM, first compound 1 µM
[29] = second compound 3.16 µM, first compound 3.16 µM
[30] = second compound 3.16 µM, first compound 10 µM
[31] = second compound 10 µM, first compound 0.0316 µM
[32] = second compound 10 µM, first compound 0.1 µM
[33] = second compound 10 µM, first compound 0.316 µM
[34] = second compound 10 µM, first compound 1 µM
[35] = second compound 10 µM, first compound 3.16 µM
[36] = second compound 10 µM, first compound 10 µM
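Note: spheroids exposed to drugs for one week before measurement.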
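Throughout, for viability, T/C: percent viability relative to DMSO vehicle control taken as 100%.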

C=CC(=O)N1CCN(c2nc(=O)n(-c3c(C)ccnc3C(C)C)c3nc(-c4c(O)cccc4F)c(F)cc23)C(C)C1 (stereo unspecified) + COC1C(OC(N)=O)C(O)C(Oc2ccc3c(O)c(NC(=O)c4ccc(O)c(CC=C(C)C)c4)c(=O)oc3c2C)OC1(C)C
> 10 µM: IC50 (second compound 0.0316 µM) | IC50 (second compound 0.1 µM) | IC50 (second compound 0.316 µM) | IC50 (second compound 1 µM) | IC50 (second compound 3.16 µM) | IC50 (second compound 10 µM)
inactive: viability, T/C [1] 75.8% | viability, T/C [2] 72.7% | viability, T/C [3] 64.3% | viability, T/C [4] 66.3% | viability, T/C [5] 69% | viability, T/C [6] 65.1% | viability, T/C [7] 73.9% | viability, T/C [8] 69.6% | viability, T/C [9] 64.8% | viability, T/C [10] 63.1% | viability, T/C [11] 59.4% | viability, T/C [12] 73.4% | viability, T/C [13] 91.4% | viability, T/C [14] 75.5% | viability, T/C [15] 69.7% | viability, T/C [16] 66.6% | viability, T/C [17] 70.4% | viability, T/C [18] 54.2% | viability, T/C [19] 83.5% | viability, T/C [20] 70.7% | viability, T/C [21] 60.7% | viability, T/C [22] 73.3% | viability, T/C [23] 66.1% | viability, T/C [24] 70.3% | viability, T/C [25] 77.1% | viability, T/C [26] 65.5% | viability, T/C [27] 62.3% | viability, T/C [28] 64.7% | viability, T/C [29] 69.3% | viability, T/C [30] 60.1% | viability, T/C [31] 82.9% | viability, T/C [32] 74.5% | viability, T/C [33] 63.5% | viability, T/C [34] 58.7% | viability, T/C [35] 62.5% | viability, T/C [36] 56.8%

CC(C)n1c(=O)n(C)c2cnc3cc(F)c(-c4ccc(OCCCN5CCCCC5)nc4)cc3c21 + COC1C(OC(N)=O)C(O)C(Oc2ccc3c(O)c(NC(=O)c4ccc(O)c(CC=C(C)C)c4)c(=O)oc3c2C)OC1(C)C
inactive: viability, T/C [1] 145% | viability, T/C [2] 129% | viability, T/C [3] 109% | viability, T/C [4] 126% | viability, T/C [5] 112% | viability, T/C [6] 111% | viability, T/C [7] 113% | viability, T/C [8] 127% | viability, T/C [9] 128% | viability, T/C [10] 131% | viability, T/C [11] 112% | viability, T/C [12] 91.2% | viability, T/C [13] 121% | viability, T/C [14] 147% | viability, T/C [15] 117% | viability, T/C [16] 121% | viability, T/C [17] 114% | viability, T/C [18] 110% | viability, T/C [19] 113% | viability, T/C [20] 111% | viability, T/C [21] 132% | viability, T/C [22] 107% | viability, T/C [23] 112% | viability, T/C [24] 82.9% | viability, T/C [25] 112% | viability, T/C [26] 130% | viability, T/C [27] 116% | viability, T/C [28] 118% | viability, T/C [29] 123% | viability, T/C [30] 102% | viability, T/C [31] 126% | viability, T/C [32] 128% | viability, T/C [33] 139% | viability, T/C [34] 128% | viability, T/C [35] 135% | viability, T/C [36] 115%
> 10 µM: IC50 (second compound 0.0316 µM) | IC50 (second compound 0.1 µM) | IC50 (second compound 0.316 µM) | IC50 (second compound 1 µM) | IC50 (second compound 3.16 µM) | IC50 (second compound 10 µM)

CC1COCCN1c1cc(-c2ccnn2C)c2ccnc(-c3ccn[nH]3)c2n1 (stereo unspecified) + COC1C(OC(N)=O)C(O)C(Oc2ccc3c(O)c(NC(=O)c4ccc(O)c(CC=C(C)C)c4)c(=O)oc3c2C)OC1(C)C
0.295 µM: IC50 (second compound 10 µM)
0.236 µM: IC50 (second compound 0.316 µM) | IC50 (second compound 3.16 µM)
0.232 µM: IC50 (second compound 0.1 µM)
0.216 µM: IC50 (second compound 0.0316 µM)
inactive: viability, T/C [1] 104% | viability, T/C [2] 71.6% | viability, T/C [3] 39% | viability, T/C [4] 28.6% | viability, T/C [5] 36.5% | viability, T/C [6] 19.8% | viability, T/C [7] 106% | viability, T/C [8] 69.5% | viability, T/C [9] 43% | viability, T/C [10] 27% | viability, T/C [11] 36.9% | viability, T/C [12] 18.8% | viability, T/C [13] 88.8% | viability, T/C [14] 63.6% | viability, T/C [15] 46.7% | viability, T/C [16] 28.9% | viability, T/C [17] 31.3% | viability, T/C [18] 18.9% | viability, T/C [19] 92.4% | viability, T/C [20] 72.2% | viability, T/C [21] 43.2% | viability, T/C [22] 26.9% | viability, T/C [23] 38.4% | viability, T/C [24] 16.6% | viability, T/C [25] 94.6% | viability, T/C [26] 75% | viability, T/C [27] 42% | viability, T/C [28] 26.5% | viability, T/C [29] 35.9% | viability, T/C [30] 22.7% | viability, T/C [31] 102% | viability, T/C [32] 82.1% | viability, T/C [33] 47.9% | viability, T/C [34] 30.6% | viability, T/C [35] 41.7% | viability, T/C [36] 20%
0.242 µM: IC50 (second compound 1 µM)
